In patent publication US20100105666A1, “TRIAZABENZO (A)NAPHTHO(2,1,8-CDE) AZULENE COMPOUNDS” (priority 2007, published 2010):

Tests used:
[1] = compound 10^−7M, NADPH, 0-60 minutes; for % metabolic stability predicted using hepatic microsomes, Human: human hepatic microsomes 0.33 mg of prot/ml; for % metabolic stability predicted using hepatic microsomes, Mouse: mouse hepatic microsomes 0.33 mg of prot/ml; for % metabolic stability predicted using hepatic microsomes, Rat: rat hepatic microsomes 0.33 mg of prot/ml
Procedure: The predicted metabolic stability is tested by incubation of the compounds at a concentration of 10^−7M in the presence of mouse, rat or human hepatic microsomes (0.33 mg of prot/ml). After addition of NADPH (nicotinamide adenine dinucleotide phosphate, reduced form), samples are taken at 0, 5, 15, 30 and 60 minutes. The enzymatic reaction is stopped using methanol (V/V). The protein is precipitated by centrifugation and the supernatant is analysed by LC-MS-MS.

[2] = tested on: tyrosine hydroxylase (TH) protein in the locus coeruleus (LC); experiment: Induction of tyrosine hydroxylase in the locus coeruleus after a single i.p. injection; assay type: in vivo; details: three days after injection, Balb/C mouse; for amount of TH in LC section 1, % relative to the mean value of the control group: LC section 1 (anterior-to-posterior), i.p. 20 mg/kg; for amount of TH in LC section 2, % relative to the mean value of the control group: LC section 2, i.p. 20 mg/kg; for amount of TH in LC section 3, % relative to the mean value of the control group: LC section 3, i.p. 20 mg/kg; for amount of TH in LC section 4, % relative to the mean value of the control group: LC section 4, i.p. 20 mg/kg; for amount of TH in LC section 5, % relative to the mean value of the control group: LC section 5, i.p. 20 mg/kg; for amount of TH in LC section 6, % relative to the mean value of the control group: LC section 6, i.p. 20 mg/kg; for amount of TH in LC section 7, % relative to the mean value of the control group: LC section 7, i.p. 20 mg/kg; for amount of TH in LC section 8, % relative to the mean value of the control group: LC section 8, i.p. 20 mg/kg
From the text: An investigation is made, among the compounds, for the capability of bringing about an increase in the tyrosine hydroxylase (TH) protein in the locus coeruleus (LC) of the brain of the Balb/C mouse.
The animals used are male mice of the pure Balb/C strain (Charles River Laboratories) aged 7 to 8 weeks at the time of treatment.
The mice are given a single injection, by the intraperitoneal route, of the compound under test, dissolved in 0.04M HCl solution (corresponding control: […]), if the compound is sufficiently soluble, or in olive oil 90%/DMSO 10% (corresponding control: olive oil 90%/DMSO 10%) for compounds that are insoluble in an aqueous medium.
Three days after the injection of each compound, all the animals are sacrificed by decapitation. The extracted brains are then frozen in liquid nitrogen and stored at −80° C.
Coronal sections 8 microns thick are then taken along the posterior-anterior axis of the LC and fixed. The sections are transferred onto Immobilon-P membranes. The TH is measured by immunodetection and image analysis.

[3] = target: 5HT receptors (type 5HT2A) (Homo sapiens, UniProt P28223); experiment: Affinity for receptors, displacement of labelled specific ligand: 5HT2A; assay type: binding
Sequence of 5HT receptors (type 5HT2A) (P28223 whole entry): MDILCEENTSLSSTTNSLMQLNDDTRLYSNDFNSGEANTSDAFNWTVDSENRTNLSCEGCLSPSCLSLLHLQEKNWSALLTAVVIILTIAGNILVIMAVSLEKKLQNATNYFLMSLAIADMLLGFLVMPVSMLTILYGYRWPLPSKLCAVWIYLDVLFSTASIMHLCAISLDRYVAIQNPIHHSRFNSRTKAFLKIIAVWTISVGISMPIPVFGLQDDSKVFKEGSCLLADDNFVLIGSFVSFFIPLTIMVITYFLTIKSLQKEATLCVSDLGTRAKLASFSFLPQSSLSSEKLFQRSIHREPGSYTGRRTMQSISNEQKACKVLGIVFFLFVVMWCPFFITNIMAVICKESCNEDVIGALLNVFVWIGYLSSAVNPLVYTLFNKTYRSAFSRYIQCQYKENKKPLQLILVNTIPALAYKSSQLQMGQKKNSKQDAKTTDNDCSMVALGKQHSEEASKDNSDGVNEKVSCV
From the text: The receptor affinity was accordingly studied for 28 conventional receptors.

Compound | melting point [°C] | % metabolic stability predicted using hepatic microsomes, Human [1] [%] | % metabolic stability predicted using hepatic microsomes, Mouse [1] [%] | % metabolic stability predicted using hepatic microsomes, Rat [1] [%] | amount of TH in LC section 1, % relative to the mean value of the control group [2] [%] | amount of TH in LC section 2, % relative to the mean value of the control group [2] [%] | amount of TH in LC section 3, % relative to the mean value of the control group [2] [%] | amount of TH in LC section 4, % relative to the mean value of the control group [2] [%] | amount of TH in LC section 5, % relative to the mean value of the control group [2] [%] | amount of TH in LC section 6, % relative to the mean value of the control group [2] [%] | amount of TH in LC section 7, % relative to the mean value of the control group [2] [%] | amount of TH in LC section 8, % relative to the mean value of the control group [2] [%] | % inhibition 5HT2A ([3]; concentration 10^−5 M) [%] | % inhibition 5HT2A ([3]; concentration 10^−7 M) [%]
O=C1NCN2c3ccc(Cl)cc3[C@H]3CCN4CCC[C@H]1[C@H]4[C@H]32 (racemic) [Example 1, (5aRS,12aSR,12bSR,12cSR)-7-Chloro-2,3,4,5,5a,10,11,12a,12b,12c-decahydro-1H,12H-3a,9b,11-triazabenzo[a]naphtho[2,1,8-cde]azulen-12-one] | > 250 | – | – | – | – | – | – | – | – | – | – | – | – | –
O=C1NC(=O)N2c3ccccc3C3CCN4CCCC1C4C32 (single isomer, unassigned) [Example 5, (5aS,12aR,12bR,12cR)— or (5aR,12aS,12bS,12cS)-2,3,5a,12a,12b,12c-Hexahydro-1H,4H-3a,9b,11-triazabenzo[a]naphtho[2,1,8-cde]azulene-10,12(5H,11H)-dione (enantiomer α)] | – | 75 | 100 | 90 | – | – | – | – | – | – | – | – | – | –
O=C1NC(=O)n2c3c(c4cc(Cl)ccc42)CCN2CCCC1C32 (racemic) [Example 3, (12aRS,12bRS)-7-Chloro-2,3,12a,12b-tetrahydro-4H,4H-3a,9b,11-triazabenzo[a]naphtho[2,1,8-cde]azulene-10,12(5H,11H)-dione] | – | – | – | – | 55 | 58 | 47 | 48 | 33 | 19 | 5 | 3 | – | –
O=C1NC(=O)N2c3ccccc3C3CCN4CCCC1C4C32 (single isomer, unassigned) [Example 6, (5aS,12aR,12bR,12cR)— or (5aR,12aS,12bS,12cS)-2,3,5a,12a,12b,12c-Hexahydro-1H,4H-3a,9b,11-triazabenzo[a]naphtho[2,1,8-cde]azulene-10,12(5H,11H)-dione (enantiomer β)] | – | 71 | 100 | 76 | – | – | – | – | – | – | – | – | – | –
O=C1NC(=O)n2c3c(c4ccccc42)CCN2CCCC1C32 (racemic) [Example 7, (12aRS,12bRS)-2,3,12a,12b-Tetrahydro-1H,4H-3a,9b,11-triazabenzo[a]naphtho[2,1,8-cde]azulene-10,12(5H,11H)-dione] | – | – | – | – | 63 | 67 | 48 | 47 | 43 | 23 | 7 | 6 | 96 | 34
O=C1NC(=O)N2c3ccccc3[C@H]3CCN4CCC[C@H]1[C@H]4[C@H]32 (racemic) [Example 4, (5aRS,12aSR,12bSR,12cSR)-2,3,5a,12a,12b,12c-Hexahydro-1H,4H-3a,9b,11-triazabenzo[a]naphtho[2,1,8-cde]azulene-10,12(5H,11H)-dione] | 255 | – | – | – | 88 | 78 | 70 | 58 | 27 | 14 | 9 | 3 | – | –
(5aRS,12aSR,12bSR,12cSR)-7-Chloro-2,3,5a,12a,12b,12c-hexahydro-1H,4H-3a,9b,1′-triazabenzo[a]naphtho[2,1,8-cde]azulene-10,12(5H,11H)-dione [Example 2] | – | – | – | – | 53 | 54 | 46 | 35 | 25 | 14 | 5 | 3 | – | –
